Laboratory results as given in article PMC11284787, “Ligand-Directed Labeling of the Adenosine A1 Receptor in Living Cells” (Journal of Medicinal Chemistry, 2024).

Tests used:
SNAP-A1AR = system: T1, SNAP-A1AR; test: Confocal A1AR internalisation and Rab5 immunolabelling; format: cell-based, human; conditions: 10 μM agonist 2 h; cells prelabeled with 30 nM 11
T1 construct: expressed in transfected cells; host or cells: HEK293T, transient transfection (FuGENE HD)
Text: A natural concern would be the potential for the covalently transferred fluorophore to prevent access of ligands to the orthosteric binding site of the labeled receptor. To address this question, we employed probe 11 to visualize the internalization pathway of the hA1AR by confocal microscopy. […] Cells were immunolabeled with the Anti-Rab5 monoclonal antibody and visualized by treatment with AF488-conjugated secondary antibody (middle frames, green channel). Right-hand frames show merged images of both magenta and green channels. […] The confocal images are representative of images acquired from three independent experiments. […] 37 °C 5% CO2. […] […] at 37 °C, 5% CO2. […] Cells were […] […] Cells were washed 3x 5 min with PBS.

NL-hA1AR = target: T2, NL-hA1AR (Homo sapiens, UniProt P30542); test: NanoBRET dissociation kinetics, NL-hA1AR HEK293T cells; format: binding; conditions: NL-hA1AR HEK293T cells, CA200645 preincubated 2 h
T2 construct: expressed in transfected cells
T2 sequence (P30542 1-326): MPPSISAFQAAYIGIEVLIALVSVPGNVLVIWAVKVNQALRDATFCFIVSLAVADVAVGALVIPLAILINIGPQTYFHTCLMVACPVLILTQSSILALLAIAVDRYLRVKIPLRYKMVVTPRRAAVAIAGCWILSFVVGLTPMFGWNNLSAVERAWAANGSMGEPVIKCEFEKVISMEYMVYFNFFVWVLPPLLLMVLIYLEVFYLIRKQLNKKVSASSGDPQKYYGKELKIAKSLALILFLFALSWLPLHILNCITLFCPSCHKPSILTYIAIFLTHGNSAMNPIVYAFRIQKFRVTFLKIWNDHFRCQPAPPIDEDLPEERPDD
Description: Figure 3 Molecular pharmacology and biochemical characterization of 11 and 12. NanoBRET ligand-binding data were measured in HEK293 cells stably expressing the human NL-A1AR (A–C) or rat NL-A1AR (D–F). […] Data were normalized to maximal BRET signals in the absence of unlabeled competing ligands (total binding, TB). (C, F) NanoBRET dissociation kinetics experiments with 11 (SulfoCy5) performed in human and rat NL-A1AR HEK293T cells, respectively. Cells were treated with 250 nM 11 (SulfoCy5, lilac open circles) for 5 h and CA200645 (black open triangles) for 2 h. […] TS-SNAP-A1AR was purified and separated on an SDS-PAGEgel gel, and direct Cy5 fluorescence was visualized using in-gel fluorescence. […]
The small reduction in the BRET signal observed toward the end of the reads could be mostly likely ascribed to substrate (furimazine) consumption. […] To confirm covalent labeling of A1AR by 11 and 12, HEK293G cells stably expressing a Twin-Strep-SNAP-A1AR(TS-SNAP-A1R) construct were treated with 11 or 12 prior to purification, separation by sodium dodecyl sulfate-polyacrylamide gel electrophoresis (SDS-PAGE) and visualization of labeled samples by in-gel fluorescence (Figure 3G). […]
37 °C for kinetic binding experiments. Emissions were read at 420 nm (80 nm bandpass; […]

| Molecule | localization of SulfoCy5-labeled SNAP-A1AR at the plasma membrane after agonist (SNAP-A1AR) | time for BRET signal to return to baseline after addition of 10 μM DPCPX (NL-hA1AR) |
| --- | --- | --- |
| OC[C@H]1O[C@@H](n2cnc3c(NC4CCCC4)nc(Cl)nc32)[C@H](O)[C@@H]1O [CCPA, 2-chloro-N^6-cyclopentyladenosine] | markedly reduced |  |
| CA200645 [reference compound] |  | ≤ 4.7 min |
